Experimental data reported in article PMC6934184, “Selective DNA-PKcs inhibition extends the therapeutic index of localized radiotherapy and chemotherapy” (The Journal of Clinical Investigation, 2019).

Biological target: T1, ADRBK1 (GRK2) (Homo sapiens, UniProt P25098)
T1 construct: purchased Thermo Fisher Scientific (Life Technologies) SelectScreen
Test: SelectScreen Z'LYTE
Format: biochemical
Outline: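 SelectScreen broad panel; activity (Z'LYTE, Adapta) plus binding formats. ATP: Km app for CSF1R Z'LYTE; 10 for CAMK1 Adapta. Readout = % per kinase.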

T1 sequence (P25098 whole entry): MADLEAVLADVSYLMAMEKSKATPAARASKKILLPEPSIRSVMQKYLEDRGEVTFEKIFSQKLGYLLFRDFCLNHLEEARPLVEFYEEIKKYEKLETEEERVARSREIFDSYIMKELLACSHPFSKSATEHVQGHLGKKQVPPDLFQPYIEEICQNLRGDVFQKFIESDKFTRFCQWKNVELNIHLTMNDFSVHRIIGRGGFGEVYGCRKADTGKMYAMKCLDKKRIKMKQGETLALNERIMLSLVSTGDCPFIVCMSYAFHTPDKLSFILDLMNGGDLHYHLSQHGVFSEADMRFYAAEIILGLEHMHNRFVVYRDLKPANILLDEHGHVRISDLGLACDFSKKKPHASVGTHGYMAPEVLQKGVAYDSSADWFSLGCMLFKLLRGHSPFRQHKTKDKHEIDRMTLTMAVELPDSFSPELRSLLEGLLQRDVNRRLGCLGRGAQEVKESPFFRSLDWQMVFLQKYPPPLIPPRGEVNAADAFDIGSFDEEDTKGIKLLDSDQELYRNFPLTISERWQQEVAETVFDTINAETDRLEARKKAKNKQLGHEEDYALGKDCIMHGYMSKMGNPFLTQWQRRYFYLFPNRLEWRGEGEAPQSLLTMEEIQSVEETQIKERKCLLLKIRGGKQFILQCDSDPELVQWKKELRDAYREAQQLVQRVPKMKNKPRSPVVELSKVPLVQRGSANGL

Work on `CN(C(=O)CN1CCOCC1)c1ccc2sc3c(-c4cccc5c(=O)cc(N6CC7CCC(C6)O7)oc45)cccc3c2c1` [NU5455] yielded an inhibition at 1 µM of -2%.
